{"source": "paper PMC12655637", "about": "“Design, Synthesis, and Mechanistic Study of Novel Ciprofloxacin/Thiazole Chalcone Hybrids as Potential Anticancer Agents” (Pharmaceuticals, 2025)", "experiment_in_all_cases": "NCI-60 screening, one-dose (10 µM) and five-dose, SRB", "key": {"ACHN": {"tested_on": "ACHN", "format": "cell-based, human"}, "786−0": {"tested_on": "786−0", "format": "cell-based, human"}, "M14": {"tested_on": "M14", "format": "cell-based, human"}, "RPMI-8226": {"tested_on": "RPMI-8226", "format": "cell-based, human", "details": "RPMI-8226"}, "UACC-62": {"tested_on": "UACC-62", "format": "cell-based"}, "DU-145": {"tested_on": "DU-145", "format": "cell-based, human"}, "SNB-75": {"tested_on": "SNB-75", "format": "cell-based, human"}, "OVCAR-5": {"tested_on": "OVCAR-5", "format": "cell-based, human", "details": "five-dose, OVCAR-5"}, "SF-295": {"tested_on": "SF-295", "format": "cell-based, human"}, "SK-OV-3": {"tested_on": "SK-OV-3", "format": "cell-based, human"}, "RXF 393": {"tested_on": "RXF 393", "format": "cell-based", "details": "Homo sapiens; 10 μM; RXF 393, Renal Cancer; read-out: Growth percentage"}, "BT-549": {"tested_on": "BT-549", "format": "cell-based"}, "SW-620": {"tested_on": "SW-620", "format": "cell-based, human"}, "EKVX": {"tested_on": "EKVX", "format": "cell-based, human", "details": "Homo sapiens, 10 μM, Non-Small-Cell Lung Cancer, read-out: Growth percentage"}, "UACC-257": {"tested_on": "UACC-257", "format": "cell-based, human"}, "KM12": {"tested_on": "KM12", "format": "cell-based, human", "details": "five-dose, KM12"}, "[1]": {"details": "Homo sapiens, five-dose, read-out: LC50 (the source's name)"}, "[2]": {"details": "Homo sapiens, five-dose, UACC-62"}, "[3]": {"details": "Homo sapiens, five-dose, DU-145"}, "[4]": {"details": "Homo sapiens, five-dose, SNB-75"}, "[5]": {"details": "Homo sapiens, five-dose, SF-295"}, "[6]": {"details": "Homo sapiens, five-dose, BT-549"}, "[7]": {"details": "Homo sapiens, five-dose, SW-620"}, "[8]": {"details": "Homo sapiens, five-dose, UACC-257"}}}
{"molecule": "Cc1nc(SCC(=O)N2CCN(c3cc4c(cc3F)c(=O)c(C(=O)O)cn4C3CC3)CC2)sc1C(=O)/C=C/c1cccc(Cl)c1", "note": "[Compound 4b, (E)-7-(4-(2-((5-(3-(3-Chlorophenyl)acryloyl)-4-methylthiazol-2-yl)thio)acetyl)piperazin-1-yl)-1-cyclopropyl-6-fluoro-4-oxo-1,4-dihydroquinoline-3-carboxylic Acid]", "values": [{"measurement": "activity at 10 µM", "setting": "ACHN; Homo sapiens, 10 μM, Renal Cancer, read-out: Growth percentage", "result": 99.1, "unit": "%"}, {"measurement": "GI50", "setting": "ACHN; Homo sapiens, five-dose", "result": "> 100", "unit": "µM"}, {"measurement": "IC50", "setting": "ACHN; Homo sapiens, five-dose", "result": "> 100", "unit": "µM"}, {"measurement": "CC50", "setting": "ACHN; [1]", "result": "> 100", "unit": "µM"}, {"measurement": "TGI", "setting": "ACHN; five-dose", "result": 100.0, "unit": "µM"}, {"measurement": "activity at 10 µM", "setting": "786−0; Homo sapiens, 10 μM, 786−0, Renal Cancer, read-out: Growth percentage", "result": 74.3, "unit": "%"}, {"measurement": "GI50", "setting": "786−0; Homo sapiens, five-dose, 786−0", "result": "> 100", "unit": "µM"}, {"measurement": "IC50", "setting": "786−0; Homo sapiens, five-dose, 786−0", "result": "> 100", "unit": "µM"}, {"measurement": "CC50", "setting": "786−0; Homo sapiens, five-dose, 786−0, read-out: LC50 (the source's name)", "result": "> 100", "unit": "µM"}, {"measurement": "TGI", "setting": "786−0; five-dose, 786−0", "result": 100.0, "unit": "µM"}, {"measurement": "activity at 10 µM", "setting": "M14; Homo sapiens, 10 μM, M14, Melanoma, read-out: Growth percentage", "result": 48.7, "unit": "%"}, {"measurement": "GI50", "setting": "M14; Homo sapiens, five-dose, M14", "result": 27.5, "unit": "µM"}, {"measurement": "IC50", "setting": "M14; Homo sapiens, five-dose, M14", "result": 69.2, "unit": "µM"}, {"measurement": "CC50", "setting": "M14; Homo sapiens, five-dose, M14, read-out: LC50 (the source's name)", "result": "> 100", "unit": "µM"}, {"measurement": "TGI", "setting": "M14; five-dose, M14", "result": 100.0, "unit": "µM"}, {"measurement": "IC50", "setting": "RPMI-8226; Homo sapiens, RPMI-8226, five-dose", "result": 0.3, "unit": "µM"}, {"measurement": "GI50", "setting": "RPMI-8226; Homo sapiens, five-dose", "result": 0.2, "unit": "µM"}, {"measurement": "CC50", "setting": "RPMI-8226; [1]", "result": 0.6, "unit": "µM"}, {"measurement": "TGI", "setting": "RPMI-8226; five-dose", "result": 0.3, "unit": "µM"}, {"measurement": "activity at 10 µM", "setting": "UACC-62; Homo sapiens, 10 μM, UACC-62, Melanoma, read-out: Growth percentage", "result": 76.3, "unit": "%"}, {"measurement": "GI50", "setting": "UACC-62; [2]", "result": 20.9, "unit": "µM"}, {"measurement": "IC50", "setting": "UACC-62; [2]", "result": "> 100", "unit": "µM"}, {"measurement": "CC50", "setting": "UACC-62; Homo sapiens, five-dose, UACC-62, read-out: LC50 (the source's name)", "result": "> 100", "unit": "µM"}, {"measurement": "TGI", "setting": "UACC-62; five-dose, UACC-62", "result": 100.0, "unit": "µM"}, {"measurement": "activity at 10 µM", "setting": "DU-145; Homo sapiens, 10 μM, DU-145, Prostate Cancer, read-out: Growth percentage", "result": 94.6, "unit": "%"}, {"measurement": "GI50", "setting": "DU-145; [3]", "result": "> 100", "unit": "µM"}, {"measurement": "IC50", "setting": "DU-145; [3]", "result": "> 100", "unit": "µM"}, {"measurement": "CC50", "setting": "DU-145; Homo sapiens, five-dose, DU-145, read-out: LC50 (the source's name)", "result": "> 100", "unit": "µM"}, {"measurement": "TGI", "setting": "DU-145; five-dose, DU-145", "result": 100.0, "unit": "µM"}, {"measurement": "activity at 10 µM", "setting": "SNB-75; Homo sapiens, 10 μM, SNB-75, CNS Cancer, read-out: Growth percentage", "result": 102, "unit": "%"}, {"measurement": "GI50", "setting": "SNB-75; [4]", "result": 28.8, "unit": "µM"}, {"measurement": "IC50", "setting": "SNB-75; [4]", "result": "> 100", "unit": "µM"}, {"measurement": "CC50", "setting": "SNB-75; Homo sapiens, five-dose, SNB-75, read-out: LC50 (the source's name)", "result": "> 100", "unit": "µM"}, {"measurement": "TGI", "setting": "SNB-75; five-dose, SNB-75", "result": 77.6, "unit": "µM"}, {"measurement": "GI50", "setting": "OVCAR-5; Homo sapiens", "result": "> 100", "unit": "µM"}, {"measurement": "IC50", "setting": "OVCAR-5; Homo sapiens", "result": "> 100", "unit": "µM"}, {"measurement": "CC50", "setting": "OVCAR-5; Homo sapiens, read-out: LC50 (the source's name)", "result": "> 100", "unit": "µM"}, {"measurement": "TGI", "setting": "OVCAR-5", "result": 100.0, "unit": "µM"}, {"measurement": "activity at 10 µM", "setting": "SF-295; Homo sapiens, 10 μM, SF-295, CNS Cancer, read-out: Growth percentage", "result": 93.3, "unit": "%"}, {"measurement": "GI50", "setting": "SF-295; [5]", "result": "> 100", "unit": "µM"}, {"measurement": "IC50", "setting": "SF-295; [5]", "result": "> 100", "unit": "µM"}, {"measurement": "CC50", "setting": "SF-295; Homo sapiens, five-dose, SF-295, read-out: LC50 (the source's name)", "result": "> 100", "unit": "µM"}, {"measurement": "TGI", "setting": "SF-295; five-dose, SF-295", "result": 100.0, "unit": "µM"}, {"measurement": "activity at 10 µM", "setting": "SK-OV-3; Homo sapiens, 10 μM, SK-OV-3, Ovarian Cancer, read-out: Growth percentage", "result": 46.3, "unit": "%"}, {"measurement": "IC50", "setting": "SK-OV-3; Homo sapiens, five-dose, SK-OV-3", "result": "> 100", "unit": "µM"}, {"measurement": "CC50", "setting": "SK-OV-3; Homo sapiens, five-dose, SK-OV-3, read-out: LC50 (the source's name)", "result": "> 100", "unit": "µM"}, {"measurement": "TGI", "setting": "SK-OV-3; five-dose, SK-OV-3", "result": 100.0, "unit": "µM"}, {"measurement": "activity at 10 µM", "setting": "RXF 393", "result": -8.1, "unit": "%"}, {"measurement": "activity at 10 µM", "setting": "BT-549; Homo sapiens, 10 μM, BT-549, Breast Cancer, read-out: Growth percentage", "result": -62.2, "unit": "%"}, {"measurement": "GI50", "setting": "BT-549; [6]", "result": 15.8, "unit": "µM"}, {"measurement": "IC50", "setting": "BT-549; [6]", "result": 35.5, "unit": "µM"}, {"measurement": "CC50", "setting": "BT-549; Homo sapiens, five-dose, BT-549, read-out: LC50 (the source's name)", "result": 85.1, "unit": "µM"}, {"measurement": "TGI", "setting": "BT-549; five-dose, BT-549", "result": 36.3, "unit": "µM"}, {"measurement": "activity at 10 µM", "setting": "SW-620; Homo sapiens, 10 μM, SW-620, Colon Cancer, read-out: Growth percentage", "result": 53.3, "unit": "%"}, {"measurement": "GI50", "setting": "SW-620; [7]", "result": 10.5, "unit": "µM"}, {"measurement": "IC50", "setting": "SW-620; [7]", "result": 15.1, "unit": "µM"}, {"measurement": "CC50", "setting": "SW-620; Homo sapiens, five-dose, SW-620, read-out: LC50 (the source's name)", "result": "> 100", "unit": "µM"}, {"measurement": "TGI", "setting": "SW-620; five-dose, SW-620", "result": 40.7, "unit": "µM"}, {"measurement": "activity at 10 µM", "setting": "EKVX", "result": 83.9, "unit": "%"}, {"measurement": "activity at 10 µM", "setting": "UACC-257; Homo sapiens, 10 μM, UACC-257, Melanoma, read-out: Growth percentage", "result": 77.9, "unit": "%"}, {"measurement": "GI50", "setting": "UACC-257; [8]", "result": "> 100", "unit": "µM"}, {"measurement": "IC50", "setting": "UACC-257; [8]", "result": "> 100", "unit": "µM"}, {"measurement": "CC50", "setting": "UACC-257; Homo sapiens, five-dose, UACC-257, read-out: LC50 (the source's name)", "result": "> 100", "unit": "µM"}, {"measurement": "TGI", "setting": "UACC-257; five-dose, UACC-257", "result": 100.0, "unit": "µM"}, {"measurement": "GI50", "setting": "KM12; Homo sapiens", "result": 0.9, "unit": "µM"}, {"measurement": "IC50", "setting": "KM12; Homo sapiens", "result": 1.3, "unit": "µM"}, {"measurement": "LC50", "setting": "KM12; Homo sapiens", "result": 9.3, "unit": "µM"}, {"measurement": "TGI", "setting": "KM12", "result": 3.0, "unit": "µM"}]}
